Patent publication US8263401B2, “Adenylyl cyclase antibodies, compositions and uses thereof” (University of Medicine and Dentistry of New Jersey, priority 2005, dated 2012)

Tests used:
[1] = test system: conscious AC5KO and WT mice; assay: HR and arterial pressure in conscious mice (ECG, micromanometer catheter); assay type: in vivo, mouse; settings: for decrease in HR: Ach 0.01 μg/g i.v.; for increase in HR: atropine 1 μg/g i.v.
From the text: In AC5KO and WT mice, four ECG wires (New England Electric Wire Corporation, Lisbon, N.H., USA) were placed subcutaneously, a silicone elastomer tubing (Cardiovascular Instrument Corp., Wakefield, Mass., USA) was inserted into the right external jugular vein and a 1.4 F micromanometer catheter (Millar Instruments, Inc., Houston, Tex., USA) was inserted into the lower abdominal aorta via the femoral artery as described previously with some modifications (Uechi, M., Asai, K., Osaka, M., Smith, A., Sato, N., Wagner, T. E., Ishikawa, Y., Hayakawa, H., Vatner, D. E., Shannon, R. P., et al. (1998), Circ. Res. 82:416-423). The ECG wires, the silicone elastomer tubing and the micromanometer catheter were tunneled subcutaneously to the back, externalized, and secured in a plastic cap. On the day of the study, each mouse was placed in the mouse holder, the jugular venous catheter was accessed and connected to a microliter syringe (Hamilton Co., Reno, Nev., USA), the 1.4 F micromanometer catheter was connected to a recorder (Dash 4u; Astro-Med, Inc., West Warwick, R.I., USA) and the ECG wires were connected to an ECG amplifier (Gould Inc., Cleveland, Ohio, USA). All experiments were recorded with animals in the conscious state. After at least 6 hours recovery from the implantation of the catheter, when a stable HR was achieved, the baseline ECG and arterial pressure (AP) were recorded for 5 min. Ach(0.05 μg/g) was then administered intravenously (i.v.), and the ECG and AP recording were repeated. A recovery period of 15 min was allowed for the HR and AP to return to baseline before administering the next drug. Baseline HR slowing was examined in response to phenylephrine (0.2 μg/g i.v.).

[2] = test system: ISO-stimulated AC activity in heart membranes; assay: AC assay in heart membrane preparations; assay type: biochemical, mouse; settings: carbachol 10 μM
Method: Hearts were dissected from the mice and membrane preparations were prepared as described previously (Ishikawa, Y., Sorota, S., Kiuchi, K., Shannon, R. P., Komamura, K., Katsushika, S., Vatner, D. E., Vatner, S. F., and Homcy, C. J. (1994), J. Clin. Invest. 93:2224-2229.). Protein concentration was measured by the method of Bradford using bovine serum albumin as a standard (Bradford, M. M. (1976). Anal. Biochem. 72:248-254.). AC activity was measured as described previously (Kawabe, J., Iwami, G., Ebina, T., Ohno, S., Katada, T., Ueda, Y., Homcy, C. J., and Ishikawa, Y. (1994), J. Biol. Chem. 269:16554-16558). AC activity was linear within the incubation time up to 30 min. In order to harvest hearts for tissue cAMP content measurements, mice were allowed to acclimate to the surroundings in the laboratory for an hour before sacrifice. Freshly isolated hearts were briefly immersed in liquid nitrogen. […] The concentration of cAMP was determined with an RIA kit (PerkinElmer Life Sciences, Boston, Mass., USA).
Inventors then examined cAMP production in membranes from the hearts of AC5KO and WT at 6 months of age (FIG. 5A). The steady state AC activity was determined as the maximal capacity of cAMP production in the presence of ISO (100 μM ISO+100 μM GTP), GTPγS (100 μM) or forskolin (100 μM). […]

[3] = test system: WT, heterozygous and AC5KO mice; assay: Rotor rod test before and after db-cAMP injection; assay type: in vivo, mouse; settings: for increase in time spent on the rod without falling: 30 minutes after db-cAMP injection; for rotor rod performance: 48 hours after injection
Method: The animals were tested for motor function 30 minutes after i. p. administration of 10 mg/kg of db-cAMP. The test was repeated after 48 hours of drug administration when the drug effect was completely eliminated. Similarly, intracranial injection of db-cAMP was conducted. Before drug injection, the mice were anesthetized with ketamine. Injections of db-cAMP into the mouse brain were performed at the following coordinates: for injection into the striatum: 1.70 mm anterior to the bregma, 1.1 mm to the right of the midline, and 4.1 mm deep. Three micro-liters of drug solution was loaded into an internal cannula needle (C315×33) with cannula tubing connected to a Hamilton syringe mounted onto a microinjection pump (Harvard Apparatus, Dover, Mass.). The drug solutions were delivered at a rate of 0.5 μl/min. Normal saline was injected in a sham control.
The rotor rod test is the most commonly used method to evaluate the motor function in rodents^106 but other methods are also available^107 to reinforce the findings of the rotor rod test. Such tests include rearing test, spontaneous movement study and pole test. The first test examines the frequency of vertical movements of mice and the second examines that of horizontal movements. Thus, spontaneous activity was determined both horizontally (locomotion) and vertically (rearings). The last test, the pole test, examines the degree of bradykinesia. In this test, mice were placed head upward on the top of a rough-surfaced pole. The time until they turned downward (Tturn) and the time until they climbed down to the floor were measured (TLA). Mice were placed in a cage and their movements were videotaped for analysis. Thus, spontaneous movements as an index of motor function were evaluated. Most important, these tests were used to evaluate the recovery of motor function upon cAMP administration and/or adenovirus-mediated gene transfer of AC5 in additional studies. The preliminary data were obtained from littermates of AC5KO, and WT males.
The inventors examined whether the locomotor activity of the AC5KO mouse was impaired compared to a normal mouse. At a glance, the AC5KO mice appeared normal, i.e., they were not catatonic or rigid. […] Inventors analyzed them with a rotor rod test in which mice were put on a rotor rod as shown below. In this task, animals had to make continuous adjustment in balance and posture to remain upright on a rod. The time that mice spent on the accelerating rotor-rod without falling was measured. The rod increased from 3 rpm to 30 rpm during each 5-min trial. […] At the 5th trial, there was a small, but significant decrease in their performance in heterozygous mice.

[4] = test system: primary cultured striatal neurons; assay: cAMP accumulation in primary cultured striatal neurons; assay type: cell-based, mouse; settings: neuronal cells from WT mice; forskolin 50 micro M, dopamine 100 micro M (FIG. 9)
Method: Reaction with various agonists in the presence of a phosphodiesterase inhibitor proceed for 10 minutes and are stopped by the addition of ice-cold 2.5% perchloric acid, followed by sonication and centrifugation. Pellets are dissolved in 0.1 N NaOH for protein measurements and the supernatants are subject to cAMP assay by radioimmunoassay after neutralization. To examine whether AC5 plays a major role in regulating cAMP production, receptor-stimulated cAMP production and its effect in the striatum was measured. The rationale for this study is as follows. Changes in cAMP signal upon receptor stimulation can be easily determined by measuring AC activity in intact neuronal cells because the striatal membrane preparations present a few problems. Determination of basal, GTPγS— and forskolin-stimulated AC activity may be readily done while receptor-regulated AC activity, both stimulatory and inhibitory, is not easy in the striatum. This is, at least partially, due to less abundant receptor expression and the disruption of the receptor/G protein/AC coupling during the process of membrane homogenization of the striatum. Therefore, the effect of receptor stimulation and its sequential changes in AC activity and further downstream events including the process of phosphorylation/dephosphorylation may be best examined using cultured cells or even the whole body. […]

AC5KO and WT mice = assay: Echocardiography in anesthetized mice during i.v. ISO infusion, with co-administered Ach; assay type: in vivo, mouse
Method: Adenylyl cyclase 5 knockout (AC5KO) mice (6.4±0.2 month old, n=6) and wild type (WT) mice (6.7±0.1 month old, n=6) of either sex from the same genetic background as the transgenic mice were used for the physiological studies. Measurements of LV ejection fraction (LVEF) were performed as described previously (Iwase, M., Uechi, M., Vatner, D. E., Asai, K., Shannon, R. P., Kudej, R. K., Wagner, T. E., Wight, D.C., Patrick, T. A., Ishikawa, Y., et al. (1997), Am. J. Physiol. 272:H585-589.). Briefly, after determination of body weight, mice were anesthetized with ketamine (0.065 mg/g), acepromazine (0.002 mg/g), and xylazine (0.013 mg/g) injected intraperitoneally and were allowed to breathe spontaneously. Echocardiography was performed using ultrasonography (Sequoia C256; Acuson Corporation, Mountain View, Calif., USA). A dynamically focused 15-MHz annular array transducer was applied from below, using a warmed saline bag as a standoff. M-mode echocardiographic measurements of the LV were performed at baseline and during intravenous infusion of ISO (0.005, 0.01, 0.02, and 0.04 μg/kg/min i.v. for 5 minutes each)(Abbott Laboratories Inc, North Chicago, Ill., USA) using an infusion pump (PHD 2000; Harvard Apparatus, Inc., Holliston, Mass., USA). The total amount of the infusion volume was <100 μL in each mouse. […]

CC(=O)OCC[N+](C)(C)C [Ach, acetylcholine]
decrease in HR ([1]; conscious AC5KO): 7.5% | decrease in HR ([1]; conscious WT): 22%

CNC[C@H](O)c1cccc(O)c1 [Phenylephrine, phenylephrine]
baroreflex mediated slowing of HR ([1]; AC5KO compared with WT, phenylephrine 0.2 μg/g i.v.): less | systolic arterial pressure ([1]; both WT and AC5KO, phenylephrine 0.2 μg/g i.v.): increased systolic arterial pressure significantly

CN1[C@@H]2CC[C@H]1C[C@@H](OC(=O)C(CO)c1ccccc1)C2 (stereo partly shown) [atropine]
increase in HR ([1]; AC5KO): 19±7.5 beats/min | increase in HR ([1]; WT): 102±22.2 beats/min

C[N+](C)(C)CCOC(N)=O [Carbachol]
inhibition of ISO-stimulated AC activity ([2]; AC5KO heart membranes): did not inhibit | decrease of ISO-stimulated AC activity ([2]; WT heart membranes): 21±3.4%

CCCC(=O)Nc1ncnc2c1ncn2[C@@H]1O[C@@H]2COP(=O)(O)O[C@H]2[C@H]1OC(=O)CCC [db-cAMP]
increase in time spent on the rod without falling ([3]; AC5KO): approximately two-fold | rotor rod performance ([3]; AC5KO): dropped to the basal level | increase in time spent on the rod without falling ([3]; WT): 30% | rotor rod performance ([3]; WT): remained similar | increase in time spent on the rod without falling ([3]; heterozygous): 25% | rotor rod performance ([3]; heterozygous): remained similar

NCCc1ccc(O)c(O)c1 [dopamine]
levels of cAMP compared to untreated cells [4]: effective at increasing the levels of cAMP significantly

CC(C)NCC(O)c1ccc(O)c(O)c1 (stereo not shown) [ISO]
cardiac responses on LVEF and fractional shortening (FS) (AC5KO and WT mice): attenuated
